# Laboratory results taken from patent US4613608A (priority 1982, dated 1986).
# Columns and labels:
# large coronary artery = assay: tissue or blood; assay type: cell-based, dogs; conditions: for EC50: Canis lupus familiaris, read-out: ED50 Large (L); for S/L: dog, coronary artery strips
# small coronary artery = assay: tissue or blood; assay type: cell-based, dogs; conditions: Canis lupus familiaris, read-out: ED50 Small (S)
SMILES,EC50 (large coronary artery),S/L (large coronary artery),EC50 (small coronary artery)
"O=[N+]([O-])OCc1cccnc1 [Compound A, 3-Nitroxymethylpyridine, reference compound]",0.08 µg/mL,23.8,1.9 µg/mL
"O=[N+]([O-])OCCCc1ccncc1 [Compound C, 4-(3-Nitroxypropyl)pyridine]",0.0125 µg/mL,> 800,> 10 µg/mL
"O=[N+]([O-])OCc1cccc(Cl)n1 [Compound D, 2-Nitroxymethyl-6-chloropyridine]",0.0067 µg/mL,925,6.2 µg/mL
